Test results taken from patent US12077503B2, “Substituted cyclic amides and their use as herbicides” (FMC CORPORATION, priority 2015, dated 2024).

Key:
Assay type in all cases: in vivo
[1] = tested on: giant foxtail (Setaria faberii); experiment: Test A postemergence; settings: Setaria faberi, post-emergence, 240 h
Outline: (§1)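 Each rating is a visual injury score from 0 to 100 given about 10 d after treatment, judged against untreated controls kept alongside in the greenhouse. In loam soil–sand blend, seeds got a preemergence directed soil spray, while postemergence plants were 2 to 10 cm tall at spraying.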

[2] = tested on: Galium (catchweed bedstraw, Galium aparine); experiment: Test A postemergence; settings: Galium, post-emergence, 240 h
Outline: as §1

[3] = tested on: barnyardgrass (Echinochloa crus-galli); experiment: Test A postemergence; settings: Echinochloa crus-galli, post-emergence, 240 h
Outline: as §1

[4] = tested on: ryegrass, Italian (Italian ryegrass, Lolium multiflorum); experiment: Test A postemergence; settings: Lolium multiflorum, post-emergence, 240 h, 125 g ai/ha, postemergence, visual injury vs untreated controls after approx. 10 d; 0 = no effect, 100 = complete control; read-out: Ryegrass, Italian plant response rating (0 to 100 scale)
Outline: as §1

[5] = tested on: ragweed (common ragweed, Ambrosia elatior); experiment: Test A postemergence; settings: Ambrosia artemisiifolia, post-emergence, 240 h, 125 g ai/ha, postemergence, visual injury vs untreated controls after approx. 10 d; 0 = no effect, 100 = complete control; read-out: Ragweed plant response rating (0 to 100 scale)
Outline: as §1

corn (Zea mays) = experiment: Test A postemergence; settings: Zea mays, post-emergence, 240 h
Outline: as §1

[6] = tested on: wheat (Triticum aestivum); experiment: Test A postemergence; settings: Triticum aestivum, post-emergence, 240 h, 125 g ai/ha, postemergence, visual injury vs untreated controls after approx. 10 d; 0 = no effect, 100 = complete control; read-out: Wheat plant response rating (0 to 100 scale)
Outline: as §1

[7] = tested on: pigweed (Amaranthus retroflexus); experiment: Test A postemergence; settings: Amaranthus retroflexus, post-emergence, 240 h, 125 g ai/ha, postemergence, visual injury vs untreated controls after approx. 10 d; 0 = no effect, 100 = complete control; read-out: Pigweed plant response rating (0 to 100 scale)
Outline: as §1

Kochia (Kochia scoparia) [8] = experiment: Test A postemergence; settings: Bassia scoparia, post-emergence, 240 h
Outline: as §1

[9] = tested on: blackgrass (Alopecurus myosuroides); experiment: Test A postemergence; settings: Alopecurus myosuroides, post-emergence, 240 h
Outline: as §1

[10] = tested on: giant foxtail (Setaria faberii); experiment: Test A preemergence; settings: Setaria faberi, pre-emergence, 240 h, 0 to 100 scale where 0 is no effect and 100 is complete control, read-out: Foxtail, Giant plant response rating
Outline: as §1

[11] = tested on: barnyardgrass (Echinochloa crus-galli); experiment: Test A preemergence; settings: Echinochloa crus-galli, pre-emergence, 240 h, 0 to 100 scale where 0 is no effect and 100 is complete control, read-out: Barnyardgrass plant response rating
Outline: as §1

[12] = tested on: ryegrass, Italian (Italian ryegrass, Lolium multiflorum); experiment: Test A preemergence; settings: Lolium multiflorum, pre-emergence, 240 h, 0 to 100 scale where 0 is no effect and 100 is complete control, read-out: Ryegrass, Italian plant response rating
Outline: as §1

[13] = tested on: ragweed (common ragweed, Ambrosia elatior); experiment: Test A preemergence; settings: Ambrosia artemisiifolia, pre-emergence, 240 h, 0 to 100 scale where 0 is no effect and 100 is complete control, read-out: Ragweed plant response rating
Outline: as §1

[14] = tested on: pigweed (Amaranthus retroflexus); experiment: Test A preemergence; settings: Amaranthus retroflexus, pre-emergence, 240 h, 0 to 100 scale where 0 is no effect and 100 is complete control, read-out: Pigweed plant response rating
Kochia (Kochia scoparia) [15] = experiment: Test A preemergence; settings: Bassia scoparia, pre-emergence, 240 h, 0 to 100 scale where 0 is no effect and 100 is complete control, read-out: Kochia plant response rating
Outline: as §1

[16] = tested on: barnyardgrass (Echinochloa crus-galli); experiment: Test B flooded paddy test; settings: Echinochloa crus-galli, 250 g ai/ha, Flood; 0 to 100 scale where 0 is no effect and 100 is complete control; read-out: Barnyardgrass plant response rating
Outline: (§2)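 Percent control, visually estimated after 13–15 d in the greenhouse on a 0–100 basis, compares treated pots with untreated ones; compound was put into paddy water 3 cm above the soil when plants had two leaves.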

rice (Oryra sativa) = experiment: Test B flooded paddy test; settings: Oryza sativa, 250 g ai/ha, Flood; 0 to 100 scale where 0 is no effect and 100 is complete control; read-out: Rice plant response rating
Outline: as §2

[17] = tested on: ducksalad (Heteranthera limosa); experiment: Test B flooded paddy test; settings: Heteranthera limosa, 250 g ai/ha, Flood; 0 to 100 scale where 0 is no effect and 100 is complete control; read-out: Ducksalad plant response rating
Outline: as §2

[18] = tested on: sedge, umbrella (small-flower umbrella sedge, Cyperus difformis); experiment: Test B flooded paddy test; settings: Cyperus difformis, 250 g ai/ha, Flood; 0 to 100 scale where 0 is no effect and 100 is complete control; read-out: Sedge, Umbrella plant response rating
Outline: as §2

[19] = 125 g ai/ha, preemergence, visual injury rating, approximately 10 d

## Cc1ccc([C@H]2CN(C)C(=O)[C@@H]2C(=O)Nc2cccc(F)c2C)cc1 [Compound 1186]
[1]; 125 g ai/ha, postemergence, visual injury vs untreated controls after approx. 10 d, 0 = no effect, 100 = complete control, read-out: Foxtail, Giant plant response rating (0 to 100 scale)
  pest or weed control at 125 g/ha: 90%
[1]; Postemergence, 31 g ai/ha, visual injury after approx. 10 d, 0 to 100 scale, 0 no effect, 100 complete control, read-out: Plant response rating, Foxtail, Giant
  pest or weed control at 31 g/ha: 90%
[2]; 125 g ai/ha, postemergence, visual injury vs untreated controls after approx. 10 d, 0 = no effect, 100 = complete control, read-out: Galium plant response rating (0 to 100 scale)
  pest or weed control at 125 g/ha: 60%
[2]; Postemergence, 31 g ai/ha, visual injury after approx. 10 d, 0 to 100 scale, 0 no effect, 100 complete control, read-out: Plant response rating, Galium
  pest or weed control at 31 g/ha: 50%
[3]; 125 g ai/ha, postemergence, visual injury vs untreated controls after approx. 10 d, 0 = no effect, 100 = complete control, read-out: Barnyardgrass plant response rating (0 to 100 scale)
  pest or weed control at 125 g/ha: 100%
[3]; Postemergence, 31 g ai/ha, visual injury after approx. 10 d, 0 to 100 scale, 0 no effect, 100 complete control, read-out: Plant response rating, Barnyardgrass
  pest or weed control at 31 g/ha: 100%
[4]
  pest or weed control at 125 g/ha: 50%
[5]
  pest or weed control at 125 g/ha: 70%
Corn (Zea mays); 125 g ai/ha, postemergence, visual injury vs untreated controls after approx. 10 d, 0 = no effect, 100 = complete control, read-out: Corn plant response rating (0 to 100 scale)
  plant injury at 125 g/ha: 80%
Corn (Zea mays); Postemergence, 31 g ai/ha, visual injury after approx. 10 d, 0 to 100 scale, 0 no effect, 100 complete control
  Corn plant response rating (crop injury, 0 = no effect, 100 = complete kill) at 31 g/ha: 30%
[6]
  plant injury at 125 g/ha: 60%
[7]
  pest or weed control at 125 g/ha: 0%
Kochia (Kochia scoparia) [8]; 125 g ai/ha, postemergence, visual injury vs untreated controls after approx. 10 d, 0 = no effect, 100 = complete control, read-out: Kochia plant response rating (0 to 100 scale)
  pest or weed control at 125 g/ha: 60%
Kochia (Kochia scoparia) [8]; Postemergence, 31 g ai/ha, visual injury after approx. 10 d, 0 to 100 scale, 0 no effect, 100 complete control, read-out: Plant response rating, Kochia
  pest or weed control at 31 g/ha: 20%
[9]; 125 g ai/ha, postemergence, visual injury vs untreated controls after approx. 10 d, 0 = no effect, 100 = complete control, read-out: Blackgrass plant response rating (0 to 100 scale)
  pest or weed control at 125 g/ha: 80%
[9]; Postemergence, 31 g ai/ha, visual injury after approx. 10 d, 0 to 100 scale, 0 no effect, 100 complete control, read-out: Plant response rating, Blackgrass
  pest or weed control at 31 g/ha: 70%
[10]; 31 g ai/ha, Preemergence
  pest or weed control at 31 g/ha: 100%
[10]; [19]
  pest or weed control at 125 g/ha: 100%
[11]; 31 g ai/ha, Preemergence
  pest or weed control at 31 g/ha: 90%
[11]; [19]
  pest or weed control at 125 g/ha: 100%
[12]; 31 g ai/ha, Preemergence
  pest or weed control at 31 g/ha: 20%
[12]; [19]
  pest or weed control at 125 g/ha: 70%
[13]; 31 g ai/ha, Preemergence
  pest or weed control at 31 g/ha: 0%
[13]; [19]
  pest or weed control at 125 g/ha: 60%
[14]; 31 g ai/ha, Preemergence
  pest or weed control at 31 g/ha: 30%
[14]; [19]
  pest or weed control at 125 g/ha: 70%
Kochia (Kochia scoparia) [15]; 31 g ai/ha, Preemergence
  pest or weed control at 31 g/ha: 70%
Kochia (Kochia scoparia) [15]; [19]
  pest or weed control at 125 g/ha: 80%
[16]
  pest or weed control at 250 g/ha: 75%
Rice (Oryra sativa)
  pest or weed control at 250 g/ha: 30%
[17]
  pest or weed control at 250 g/ha: 60%
[18]
  pest or weed control at 250 g/ha: 0%
